Data as given in PubChem BioAssay AID256 (DTP/NCI, 2004).
Inconclusive results and toxic doses are left out.

Test system: CD2F1 mice, L1210 leukemia ip, survival T/C
Assay: NCI In Vivo Anticancer Drug Screen. Data for tumor model L1210 Leukemia (intraperitoneal) in CD2F1 (CDF1) mice
Details: endpoint: mean survival time, higher = longer survival
How it was run: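 Transplantable tumor in mice; compound-treated vs vehicle-treated groups. Read-out = treated/control ratio of the measured endpoint.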

[1] = dose: 100.0 mg/kg/injection, schedule: Q01DX001 (ip), vehicle: saline
[2] = dose: 200.0 mg/kg/injection, schedule: Q01DX001 (ip), vehicle: saline
[3] = dose: 400.0 mg/kg/injection, schedule: Q01DX001 (ip), vehicle: saline
[4] = dose: 100.0 mg/kg/injection, schedule: Q04DX003 (ip), vehicle: saline with Tween-80
[5] = dose: 200.0 mg/kg/injection, schedule: Q04DX003 (ip), vehicle: saline with Tween-80
[6] = dose: 400.0 mg/kg/injection, schedule: Q04DX003 (ip), vehicle: saline with Tween-80

In the case of `N#Cc1cn(C2OC(CO)C(O)C2O)c2nc(NN)nc(N)c12` (centres undefined), the T/C (dose: 1.56 mg/kg/injection, schedule: Q01DX005 (ip), vehicle: water) is reported as 105 % of control, the T/C (dose: 3.13 mg/kg/injection, schedule: Q01DX005 (ip), vehicle: water) is reported as 105 % of control and the T/C (dose: 6.25 mg/kg/injection, schedule: Q01DX005 (ip), vehicle: water) is reported as 107 % of control. The T/C (dose: 12.5 mg/kg/injection, schedule: Q01DX005 (ip), vehicle: water) was 108 % of control, the T/C (dose: 25.0 mg/kg/injection, schedule: Q01DX005 (ip), vehicle: water) was 110 % of control and the T/C (dose: 50.0 mg/kg/injection, schedule: Q01DX005 (ip), vehicle: water) was 121 % of control. The T/C (dose: 100.0 mg/kg/injection, schedule: Q01DX005 (ip), vehicle: water) was 96 % of control.

In the case of `O=C(O)c1cc(-c2ccccc2)nc2c1ccc1ccccc12`, the T/C [1] is reported as 103 % of control, the T/C [2] is reported as 102 % of control and the T/C [3] is reported as 97 % of control.

With `COC(=O)C(CCl)NC(N)=O` (centres undefined) the T/C [1] was 104 % of control, the T/C [2] was 101 % of control and the T/C [3] was 104 % of control.

With `O=c1[nH]c2cc([N+](=O)[O-])ccc2c2ccccc12` the T/C (dose: 50.0 mg/kg/injection, schedule: Q01DX001 (ip), vehicle: carboxymethylcellulose (CMC)) was 101 % of control, the T/C (dose: 100.0 mg/kg/injection, schedule: Q01DX001 (ip), vehicle: carboxymethylcellulose (CMC)) was 98 % of control and the T/C (dose: 200.0 mg/kg/injection, schedule: Q01DX001 (ip), vehicle: carboxymethylcellulose (CMC)) was 98 % of control. The T/C (dose: 400.0 mg/kg/injection, schedule: Q01DX001 (ip), vehicle: carboxymethylcellulose (CMC)) was 98 % of control.

`CCOC(=O)c1c(O)csc1N` was tested, and the T/C [4] was 110 % of control, the T/C [5] was 98 % of control and the T/C [6] was 98 % of control.

For `Cc1ccc(S(=O)(=O)OC2C3OCC(O3)C(O)C2O)cc1` (centres undefined), the T/C [4] was 97 % of control, the T/C [5] was 94 % of control and the T/C [6] was 94 % of control.

`O=C(c1ccccc1Br)C(Br)C(Br)c1ccccc1` (centres undefined) was tested, and the T/C [4] was 103 % of control, the T/C [5] was 111 % of control and the T/C [6] was 100 % of control.

For `CCOC(=O)/C=C/SCCCN`, the T/C (dose: 100.0 mg/kg/injection, schedule: Q04DX003 (ip), vehicle: saline) was 98 % of control and the T/C (dose: 200.0 mg/kg/injection, schedule: Q04DX003 (ip), vehicle: saline) was 96 % of control.

For `[Cl][Pt+2][Cl].[NH-]CC([NH-])CN`, the T/C (dose: 0.39 mg/kg/injection, schedule: Q04DX003 (ip), vehicle: saline) was 89 % of control, the T/C (dose: 0.78 mg/kg/injection, schedule: Q04DX003 (ip), vehicle: saline) was 97 % of control and the T/C (dose: 1.56 mg/kg/injection, schedule: Q04DX003 (ip), vehicle: saline) was 103 % of control. For the same compound, the T/C (dose: 3.12 mg/kg/injection, schedule: Q04DX003 (ip), vehicle: saline) was 103 % of control, the T/C (dose: 6.25 mg/kg/injection, schedule: Q04DX003 (ip), vehicle: saline) was 111 % of control and the T/C (dose: 12.5 mg/kg/injection, schedule: Q04DX003 (ip), vehicle: saline) was 109 % of control.

In the case of `CN(N=O)C(=O)NC1C(CO)OC2OC(C)(C)OC21` (centres undefined), the T/C (dose: 100.0 mg/kg/injection, schedule: Q04DX003 (ip), vehicle: saline sonified) is reported as 94 % of control, the T/C (dose: 132.0 mg/kg/injection, schedule: Q01DX009 (ip), vehicle: saline) is reported as 151 % of control and the T/C (dose: 200.0 mg/kg/injection, schedule: Q01DX009 (ip), vehicle: saline) is reported as 198 % of control. For the same compound, the T/C (dose: 200.0 mg/kg/injection, schedule: Q04DX003 (ip), vehicle: saline sonified) was 100 % of control, the T/C (dose: 300.0 mg/kg/injection, schedule: Q01DX009 (ip), vehicle: saline) was 105 % of control and the T/C (dose: 400.0 mg/kg/injection, schedule: Q04DX003 (ip), vehicle: saline sonified) was 107 % of control.

In the case of `CCOC(=O)C[N+](CC)(CC)CC`, the T/C (dose: 100.0 mg/kg/injection, schedule: Q04DX003 (ip), vehicle: Klucel (hydroxypropylcellulose) (HPC)) is reported as 96 % of control, the T/C (dose: 200.0 mg/kg/injection, schedule: Q04DX003 (ip), vehicle: Klucel (hydroxypropylcellulose) (HPC)) is reported as 96 % of control and the T/C (dose: 400.0 mg/kg/injection, schedule: Q04DX003 (ip), vehicle: Klucel (hydroxypropylcellulose) (HPC)) is reported as 93 % of control.

For `CC(=O)C(C(C)=O)C(=[C-]C(F)(F)F)C(F)(F)F.CC(=O)C(C(C)=O)C(=[C-]C(F)(F)F)C(F)(F)F.[Pd+2]`, the T/C (dose: 3.13 mg/kg/injection, schedule: Q04DX003 (ip), vehicle: distilled water + Tween-80) was 102 % of control, the T/C (dose: 6.25 mg/kg/injection, schedule: Q04DX003 (ip), vehicle: distilled water + Tween-80) was 96 % of control and the T/C (dose: 12.5 mg/kg/injection, schedule: Q04DX003 (ip), vehicle: distilled water + Tween-80) was 102 % of control.

In the case of `C1=C(CCc2c[nH]c3ccccc23)CCN(CCc2ccccc2)C1`, the T/C (dose: 50.0 mg/kg/injection, schedule: Q01DX009 (ip), vehicle: Klucel (hydroxypropylcellulose) (HPC)) is reported as 103 % of control, the T/C (dose: 100.0 mg/kg/injection, schedule: Q01DX009 (ip), vehicle: Klucel (hydroxypropylcellulose) (HPC)) is reported as 95 % of control and the T/C (dose: 200.0 mg/kg/injection, schedule: Q01DX009 (ip), vehicle: Klucel (hydroxypropylcellulose) (HPC)) is reported as 122 % of control.
